Test results reported in patent US12070452B2, “Compounds targeting HSP110 protein for cancer treatment” (INSERM (Institut National de la Santé et de la Recherche …, priority 2018, dated 2024).

Key:
HSP110:STAT3 complex = biological target: T1, HSP110:STAT3 complex (Homo sapiens, UniProt Q92598); assay: Immunoprecipitation of HSP110:STAT3 complex in SW480 cells; type: cell-based; details: SW480 shCtrl cells, 10 μM, 48 h
T1 construct: disrupting HSP110:STAT3 complex within the cell using human colorectal SW480 cancer cells; endogenous in cells; host or cells: SW480 cells carrying control shRNA (shCtrl); sh110 cells as HSP110-depleted control
Experimental: FIG. 2A: Immunoprecipitation (IP) analysis of HSP110 protein (first line), STAT3 protein (second line) compared with total Immunoglobuline (Ig) and actin in SW480 cells treated with (from left to the right column) non-relevant antibody as control (called NT a Normal rabbit IgG (sc-2027) from Santa Cruz Biotechnologies), compound 52 (related to formula (III)), compound 33 (related to formula (II)), compound 51 (related to formula (IV)) and comparative compound 61 at a concentration of 10 μM during 48 h on shCtrl cells transfected with shRNA for shRNA control (referenced ShCtrl IP:STAT3 for the five first columns) or HSP110-silencing (sh110) (referenced sh110-IP:STAT3 for the two last columns) (from the left to the right columns). Immunoprecipitation analysis of HSP110 (first line), STAT3 (second line) compared with total Ig and actin (second blot in the right) is observed with shCtrl cells transfected with shRNA for shRNA control (shCtrl) or HSP110-silencing (sh110) (left to right columns).
FIG. 2B: Quantification of HSP110:STAT3 disruption in percentage considering the total amount of HSP110 protein normalized by the signal intensity of the Ig band of FIG. 1 panel A. (Ordinate: Percentage of STAT3:HSP110 protein interaction (scale 50)). The histogram measured quantification in percentage for ShCtrl IP: STAT3 treated with Ctrl, compounds 52, 33, 51 and comparative compound 61, and for shCtrl cells transfected with shRNA for shRNA control referenced ShCtrl IP: STAT3) or HSP110-silencing (sh110) (referenced sh110-IP: STAT3) (from the left to the right column)
(§1) Immunoprecipitation test were realized on human colorectal cancer cells (SW480 and HCT116 cell lines), using a control depleted in HSP110 called Sh110 and a not depleted cells in HSP110. STAT3 phosphorylation is then […] by compounds 33 and 52. Depletion of HSP110 in the negative control blocked the phosphorylation of STAT3 without affecting STAT3 overall levels (FIGS. 2 and 3).

phosphorylated STAT3 = assay: P-STAT3 level in SW480 cells (immunoblot quantification); type: cell-based, human; details: 10 μM, 48 h, normalized by actin
Experimental: Results for SW480 cells treated during 48 h with non-relevant antibody (called NT), compound 52, compound 33, compound 51 and comparative compound 61 at 10 μM, and sh110 cells correspond to the third fourth, fifth, sixth and last columns from the left to the right.
FIG. 3B: Quantification of P-STAT3 level (in percentage) normalized by actin. […] (Ordinate: Percentage of P-STAT3 level (scale 50)
as §1

human protein HSP110 = biological target: T2, human protein HSP110 (Homo sapiens, UniProt Q92598); assay: HSP110 anti-aggregation function (luciferase substrate test); type: biochemical; details: human HSP110 1.5 μM with firefly luciferase, 30 min at 42° C.; read-out: IC50 of HSP110 anti-aggregating activity
T2 construct: DNA coding the NBD-HSP110 (from human-HSP110)
Experimental: Anti-aggregation function of HSP110 was evaluated as described by O H et al (The Journal of biological chemistry 274, 15712-15718 (1999)). The human protein HSP110 (obtained as described above) at a concentration of 1.5 μM was incubated with firefly luciferase (from Sigma—from Photinus pyralis) in reaction buffer and heated in water bath for 30 min at 42° C.
Compounds of the present invention were added in reaction buffer to achieve the indicated concentrations and the final DMSO concentration was held constant at 1%. The heated reaction was diluted 10 times into buffer containing 60% of rabbit reticulocytelysate and incubated for 2 hours. The luciferase activity was measured by diluting 5 times the solution in HEPES and adding 5 μL of the solution in luciferase substrate (50 μL of Luciferase Assay System—Promega E1501 diluted in HEPES). The bioluminescence was reading with Envision Perkin Elmer.
The percentage of activity (x) was calculated by using the following equation: x=[(A−B)/(C−B)]×100, where (A) is the luciferase luminescence in presence of compounds of the invention, (B) in absence of HSP110 and (C) in presence of DMSO (Control). The percentage of total folding HSP110-promoted (mean=36%) was calculated considering as 100% the luminescence of luciferase incubated with HSP110 without heat shock. The IC50 were calculated from the dose-response curves, which were fitted by GraphPrism (Equation: Y=100/(1+10^((Log IC50−X)*HillSlope)).

CT26 cells = assay: Flow cytometric analysis of cell death (Annexin V / 7-AAD) in CT26 cells; type: cell-based, mouse; details: 10 μM, 96 h
Experimental: FIG. 5A: Flow cytometric analysis of cell death in CT26 cells treated with the compound 33 (at the bottom left), compound 52 (at the bottom middle), comparative compound 61 (at the bottom right) at 10 μM during 96 h compared with Control (DMSO) (at the top left), and Cisplatin (at the top middle and top right). Live cells were double negative for 7-AAD (Y axis) and Annexin V (X axis), early apoptotic cells were positive for Annexin V, late apoptotic cells were positive for Annexin V and 7-AAD ([…]) and dead cells were positive for 7-AAD only.
FIG. 5B: Quantification of cell viability (in percentage) from flow cytometry data are represented (Control, cells, compounds 33, 52 and 61 from the left to the right bars). (Abscissa Negativity of 7-AAD; Ordinate Negativity of Annexin V).
We then analyzed cell death in CT26 cells treated with 10 μM during 96 h of compounds 33, 52 and 61 by flow cytometry. Cells were also treated with a well know anti-cancer compound, called cisplatin. Cells were marked for 7-aminoactinomycin D, which exclusively bind on death cells and for Annexin V, a well-known indicators of early stage apoptosis, thanks to its ability to bind to phosphatidylserine.

HSP110/Myd88 interaction = biological target: T3, HSP110/Myd88 interaction (Homo sapiens, UniProt Q92598); assay: Immunoprecipitation of HSP110/Myd88 in DLBCL cell line; type: cell-based; details: IP Myd88, Western Blot
T3 construct: endogenous in cells
Text: FIG. 10A: Immunoprecipitation (IP) analysis of HSP110 (first line), Myd88 (second line), heavy chains (third line) and actin (fourth line) in large B cell lymphoma cell lines (DLBCL).
Left part of FIG. 10A (“Inputs”): treated with (from left to right column of the left part of FIG. 10A) DMSO, compound 52 (5052), compound 33 (5033) and compound 61 (5061) (Negative control);
Middle part of FIG. 10A (“IP Myd88”): treated with (from left to right column of the middle part of FIG. 10A) DMSO, compound 52, compound 33 and compound 61 (as the negative control); Myd88 was immunoprecipitated with an antibody specifically directed against Myd88.
MyD88 was immuno-precipitated from the cell line which has been non-treated or treated with the HSP110 inhibitors.

T1 sequence (Q92598 2-858 limits assumed, one chain of several): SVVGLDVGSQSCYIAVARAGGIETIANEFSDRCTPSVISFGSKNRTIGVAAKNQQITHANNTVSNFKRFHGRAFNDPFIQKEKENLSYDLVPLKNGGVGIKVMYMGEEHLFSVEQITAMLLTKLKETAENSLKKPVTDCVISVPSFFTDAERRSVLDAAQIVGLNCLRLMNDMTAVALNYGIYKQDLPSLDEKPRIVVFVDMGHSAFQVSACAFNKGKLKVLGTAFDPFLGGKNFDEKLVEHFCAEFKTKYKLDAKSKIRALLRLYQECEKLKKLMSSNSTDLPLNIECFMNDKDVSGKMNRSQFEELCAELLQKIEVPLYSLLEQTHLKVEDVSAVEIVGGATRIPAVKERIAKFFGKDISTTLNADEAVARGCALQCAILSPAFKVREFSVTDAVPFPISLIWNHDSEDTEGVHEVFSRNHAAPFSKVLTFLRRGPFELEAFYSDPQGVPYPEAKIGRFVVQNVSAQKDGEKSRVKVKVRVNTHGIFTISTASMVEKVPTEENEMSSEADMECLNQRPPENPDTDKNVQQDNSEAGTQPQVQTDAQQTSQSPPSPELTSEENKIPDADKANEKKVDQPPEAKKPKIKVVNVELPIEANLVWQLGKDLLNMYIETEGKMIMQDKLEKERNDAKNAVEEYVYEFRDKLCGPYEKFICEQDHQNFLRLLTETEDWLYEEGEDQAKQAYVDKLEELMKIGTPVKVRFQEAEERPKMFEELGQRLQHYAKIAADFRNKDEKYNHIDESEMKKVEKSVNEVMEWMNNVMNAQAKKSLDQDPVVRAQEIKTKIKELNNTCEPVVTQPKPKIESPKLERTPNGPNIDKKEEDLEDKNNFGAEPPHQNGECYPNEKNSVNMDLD
T3 sequence (Q92598 2-858 limits assumed): as the sequence (Q92598 2-858 limits assumed, one chain of several) above
T2 sequence (Q92598 whole entry, looked up): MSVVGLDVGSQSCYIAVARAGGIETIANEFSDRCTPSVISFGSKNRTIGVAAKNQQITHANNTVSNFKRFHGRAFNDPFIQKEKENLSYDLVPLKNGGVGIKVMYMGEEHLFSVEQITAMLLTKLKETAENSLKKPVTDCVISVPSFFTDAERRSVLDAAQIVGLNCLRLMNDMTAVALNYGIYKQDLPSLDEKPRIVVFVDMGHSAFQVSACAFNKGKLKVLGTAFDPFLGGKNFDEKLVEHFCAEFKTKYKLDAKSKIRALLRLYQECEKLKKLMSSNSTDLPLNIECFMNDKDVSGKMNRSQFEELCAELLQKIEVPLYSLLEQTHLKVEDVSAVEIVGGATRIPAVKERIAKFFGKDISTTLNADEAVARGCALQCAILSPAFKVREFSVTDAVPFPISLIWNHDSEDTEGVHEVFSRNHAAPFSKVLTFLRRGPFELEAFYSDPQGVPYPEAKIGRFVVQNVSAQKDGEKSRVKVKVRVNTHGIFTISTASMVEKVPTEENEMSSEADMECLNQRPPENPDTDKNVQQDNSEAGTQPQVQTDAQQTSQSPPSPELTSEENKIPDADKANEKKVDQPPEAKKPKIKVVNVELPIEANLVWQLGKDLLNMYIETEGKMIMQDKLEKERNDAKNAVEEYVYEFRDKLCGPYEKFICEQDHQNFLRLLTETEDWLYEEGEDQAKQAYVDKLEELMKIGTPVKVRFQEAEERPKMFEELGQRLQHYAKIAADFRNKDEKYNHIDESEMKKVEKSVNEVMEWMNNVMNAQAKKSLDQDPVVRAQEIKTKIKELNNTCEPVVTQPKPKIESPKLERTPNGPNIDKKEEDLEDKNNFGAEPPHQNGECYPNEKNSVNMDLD

percentage of interaction of STAT3:HSP110 (HSP110:STAT3 complex)	IC50 (human protein HSP110) [µM]	HSP110/Myd88 interaction (HSP110/Myd88 interaction)	SMILES	P-STAT3 level (phosphorylated STAT3)	cell death / apoptosis (Annexin V and 7-AAD marking) (CT26 cells)
not decrease	–	–	COc1ccc(-c2cnc(-c3cnc(-c4ccc(OC)c(OC)c4)c(C)c3)c(/C=C/c3ccccc3)c2)cc1OC [compound 51, (E)-5,6′-Bis(3,4-dimethoxyphenyl)-5′-methyl-3-styryl-2,3′-bipyridine]	about 50%	–
not decrease	227.5 ± 1.9	does not inhibit	N#CCc1cccc(-c2cnc(Cl)c(/C=C/c3ccccc3)c2)c1 [compound 61, (E)-2-(3-(6-Chloro-5-styrylpyridin-3-yl)phenyl) acetonitrile, reference compound]	100%	don't seem to be marked
